Values quoted from earlier work, collected in patent US20230109016A1, “IN-VITRO DIAGNOSIS OF HISTAMINE INTOLERANCE SYNDROME” (IMMUNDIAGNOSTIK AG, priority 2020, published 2023).

Test system: DAO
Details: within 30 minutes of heparin administration

| Compound | DAO levels in humans |
| --- | --- |
| heparin | increase sharply |

Test system: MAO
Details: 14C-putrescine 1 micromole to 5 millimole

| Compound | sensitivity of serum MAO (lower affinity enzyme) to inhibitor |
| --- | --- |
| C#CCN(C)[C@H](C)Cc1ccccc1 [selegiline] | sensitive |

Test system: not given
Details: 37° C.

| Compound | apparent half-life in serum [h] |
| --- | --- |
| NCCc1c[nH]cn1 [histamine, 2-(4-imidazolyl)-ethylamine] | 0.033 to 4 |

Molecular target: Human serum DAO (Homo sapiens, UniProt P19801)
Details: 100 micromolar histamine in the assay

| Compound | inhibition of human serum DAO |
| --- | --- |
| NCCc1c[nH]cn1 [histamine, 2-(4-imidazolyl)-ethylamine] | partly inhibited |

Same assay, conditions: histamine concentration of 500 micromoles (U.S. Pat. No. 8,003,343)

| Compound | inhibition of human DAO activity |
| --- | --- |
| NCCc1c[nH]cn1 [histamine, 2-(4-imidazolyl)-ethylamine] | about 60% |

Molecular target: T1, DAO (Homo sapiens, UniProt P19801)
T1 sequence (P19801 20-751): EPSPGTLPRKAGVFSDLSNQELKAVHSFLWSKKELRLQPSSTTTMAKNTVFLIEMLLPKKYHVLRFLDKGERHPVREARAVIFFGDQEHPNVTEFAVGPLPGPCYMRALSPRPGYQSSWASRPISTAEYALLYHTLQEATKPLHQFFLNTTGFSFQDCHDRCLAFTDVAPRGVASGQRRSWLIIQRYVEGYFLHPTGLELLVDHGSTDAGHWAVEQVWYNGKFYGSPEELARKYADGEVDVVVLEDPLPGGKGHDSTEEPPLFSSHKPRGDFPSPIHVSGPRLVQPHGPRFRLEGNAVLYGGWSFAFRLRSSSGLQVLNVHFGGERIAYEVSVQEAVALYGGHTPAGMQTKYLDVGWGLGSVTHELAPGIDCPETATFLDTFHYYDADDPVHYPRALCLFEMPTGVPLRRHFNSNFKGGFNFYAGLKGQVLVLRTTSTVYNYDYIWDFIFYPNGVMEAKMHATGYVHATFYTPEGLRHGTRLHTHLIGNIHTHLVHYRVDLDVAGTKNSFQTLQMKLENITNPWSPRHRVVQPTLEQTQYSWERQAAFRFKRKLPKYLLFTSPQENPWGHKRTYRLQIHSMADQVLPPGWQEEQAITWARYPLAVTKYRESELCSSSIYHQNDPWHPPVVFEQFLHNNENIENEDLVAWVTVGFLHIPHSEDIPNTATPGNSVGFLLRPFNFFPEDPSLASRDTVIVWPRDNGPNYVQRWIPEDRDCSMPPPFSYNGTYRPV
Details: presence of heparin in experiments with cell culture

| Compound | impact on the DAO level or its activity |
| --- | --- |
| heparin | no impact |

Molecular target: T1, DAO
Details: 14C-putrescine 1 micromole to 5 millimole

| Compound | sensitivity of serum DAO (high affinity enzyme) to inhibitor |
| --- | --- |
| N=C(N)NN [alpha-aminoguanidine] | sensitive |

Molecular target: T2, DAO in serum (Homo sapiens, UniProt P19801)
T2 construct: host or cells: serum
T2 sequence (P19801 20-751): T1 sequence (P19801 20-751)
Details: not given

| Compound | effect on the activity of DAO in serum |
| --- | --- |
| CN1CC[C@]23c4c5ccc(O)c4O[C@H]2[C@@H](O)C=C[C@H]3[C@H]1C5 [morphine] | inhibited |
| CCOC(=O)C1(c2ccccc2)CCN(C)CC1 [pethidine] | inhibited |
| CCCC(C)C1(CC)C(=O)NC(=S)NC1=O (centres unmarked) [thiopental] | inhibited |

Same assay, conditions: stated as known

| Compound | effect on the activity of DAO in serum |
| --- | --- |
| CO/N=C(\C(=O)N[C@@H]1C(=O)N2C(C(=O)O)=C(COC(N)=O)CS[C@H]12)c1ccco1 [cefuroxime] | inhibited |
| N=C(N)c1ccc(OCCCCCOc2ccc(C(=N)N)cc2)cc1 [pentamidin] | inhibited |
| CC(=O)Oc1ccccc1C(=O)O [acetylsalicylic acid] | inhibited |
| CN/C(=N/CCSCc1nc[nH]c1C)NC#N [cimetidine] | inhibited |
| CC(=O)O[C@H]1C[C@@H]2CC[C@@H]3[C@H](CC[C@@]4(C)[C@H]3C[C@H]([N+]3(C)CCCCC3)[C@@H]4OC(C)=O)[C@@]2(C)C[C@@H]1[N+]1(C)CCCCC1 [pancuronium] | inhibited |
| N=C(N)NC(=O)c1nc(Cl)c(N)nc1N [amiloride] | inhibited |
| Cc1c(N(C)CS(=O)(=O)O)c(=O)n(-c2ccccc2)n1C [metamizole] | inhibited |
| CC(=O)N[C@@H](CS)C(=O)O [acetylcysteine] | inhibited |
| CCCNC(C)C(=O)Nc1ccccc1C (centres unmarked) [prilocaine] | inhibited |
| CN(C)CCC=C1c2ccccc2CCc2ccccc21 [amitriptyline] | inhibited |
| O=C(O)[C@H]1/C(=C/CO)O[C@@H]2CC(=O)N21 [clavulanic acid] | inhibited |
| CCN(CC)CCCC(C)Nc1ccnc2cc(Cl)ccc12 (centres unmarked) [chloroquine] | inhibited |
| CC(CCc1ccc(O)cc1)NCCc1ccc(O)c(O)c1 (centres unmarked) [dobutamine] | inhibited |
| C=CCc1ccccc1OCC(O)CNC(C)C (centres unmarked) [alprenolol] | inhibited |
| Nc1c(Br)cc(Br)cc1CN[C@H]1CC[C@H](O)CC1 [ambroxol] | inhibited |
| Cn1c(=O)c2[nH]cnc2n(C)c1=O [aminophylline] | inhibited |
| N/N=c1\[nH][nH]/c(=N\N)c2ccccc12 [dihydralazin] | inhibited |
| O=P1(N(CCCl)CCCl)NCCCO1 (centres unmarked) [cyclophosphamide] | inhibited |
| COc1cc2c3cc1Oc1cc(ccc1O)C[C@@H]1c4c(cc(OC)c(O)c4Oc4ccc(cc4)C[C@@H]3N(C)CC2)CC[N+]1(C)C [D-tubocurarine] | inhibited |
| CN(C)CCn1nnnc1SCC1=C(C(=O)O)N2C(=O)[C@@H](NC(=O)Cc3csc(N)n3)[C@H]2SC1 [cefotiam] | inhibited |
| C=CC[N@@+]12CC[C@@]34c5ccccc5N5/C=C6/[C@H]7C[C@H]8[C@@]9(CC[N@@+]8(CC=C)C/C7=C/CO)c7ccccc7N(/C=C(/[C@@H](C[C@@H]31)/C(=C\CO)C2)[C@H]54)[C@@H]69 [alcuronium] | inhibited |
| CCN(CC)CCNC(=O)c1cc(Cl)c(N)cc1OC [metoclopramide] | inhibited |
| NNC(=O)c1ccncc1 [isoniazid] | inhibited |

Molecular target: recombinant human kidney DAO (Homo sapiens, UniProt P19801)
Details: read-out: Km (Michaelis constant); isolated recombinant human kidney DAO expressed in Drosophila cells (Elmore et al. 2002)

| Compound | Km [µM] |
| --- | --- |
| NCCCCN [putrescine, 1,4-diaminobutane] | ~20 |
| NCCc1c[nH]cn1 [histamine, 2-(4-imidazolyl)-ethylamine] | ~2.8 |
